Reference: ChEMBL document CHEMBL3769379, “SAR Studies of 5-Aminopyrazole-4-carboxamide Analogues as Potent and Selective Inhibitors of Toxoplasma gondii CDPK1” (ACS Med Chem Lett, 2015)
Active and inactive are the calls of the source. No cut-off for these calls is given here.

Legend:
[1] = target: Proto-oncogene tyrosine-protein kinase Src (Homo sapiens, UniProt P12931)
[2] = Cytotoxicity against human CRL8155 cells after 48 hrs by Alamar Blue assay; format: cell-based; details: crl8155, 48 h
[3] = target: T1, Calmodulin-domain protein kinase 1 (Toxoplasma gondii, UniProt Q9BJF5)
T1 sequence (Q9BJF5 whole entry): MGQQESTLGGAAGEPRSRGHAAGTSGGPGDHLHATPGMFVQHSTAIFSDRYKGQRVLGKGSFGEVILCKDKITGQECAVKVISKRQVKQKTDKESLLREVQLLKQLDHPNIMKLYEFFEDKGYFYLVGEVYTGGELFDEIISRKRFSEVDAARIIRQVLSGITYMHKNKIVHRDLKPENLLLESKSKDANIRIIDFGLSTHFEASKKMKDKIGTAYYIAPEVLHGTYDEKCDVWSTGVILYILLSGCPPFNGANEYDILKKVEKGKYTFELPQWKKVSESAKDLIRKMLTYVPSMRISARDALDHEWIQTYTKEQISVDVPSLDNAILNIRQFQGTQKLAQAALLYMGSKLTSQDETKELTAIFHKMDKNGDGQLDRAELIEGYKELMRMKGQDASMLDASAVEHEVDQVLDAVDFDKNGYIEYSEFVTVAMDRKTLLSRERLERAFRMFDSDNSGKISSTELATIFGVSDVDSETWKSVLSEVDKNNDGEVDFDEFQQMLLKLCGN

[4] = Solubility of the compound in PBS incubated overnight at pH 6.5 by HPLC-UV analysis; format: physicochemical; details: buffer
Mus musculus [5] = experiment: Toxicity in CF-1 mouse infected with Toxoplasma gondii RH assessed as altered grooming at 20 to 50 mg/kg, po qd administered for 5 days; format: organism-based; details: in vivo, 120 h
Toxoplasma gondii [6] = experiment: Antiprotozoan activity against Toxoplasma gondii infected in fibroblasts assessed as growth inhibition at low concentration after 2 days by beta-galactosidase reporter assay; format: functional, organism-based
Mus musculus [7] = experiment: Toxicity in CF-1 mouse infected with Toxoplasma gondii RH assessed as weight loss at 20 to 50 mg/kg, po qd administered for 5 days; format: organism-based; details: in vivo, 120 h
Mus musculus [8] = experiment: Toxicity in CF-1 mouse infected with Toxoplasma gondii RH assessed as lethargy at 20 to 50 mg/kg, po qd administered for 5 days; format: organism-based; details: in vivo, 120 h
Toxoplasma gondii [9] = experiment: Antiprotozoan activity against Toxoplasma gondii overexpressing wild type CDPK1 infected in fibroblasts assessed as growth inhibition at low concentration after 2 days by beta-galactosidase reporter assay; format: functional, organism-based
[10] = Ratio of drug level in brain to plasma in mouse at 5 mg/kg, ip by LC/MS analysis; format: ADME, organism-based
Mus musculus [11] = experiment: Toxicity in CF-1 mouse infected with Toxoplasma gondii RH assessed as lethargy at 5 to 40 mg/kg, po bid administered for 5 days; format: organism-based; details: in vivo, 120 h
[12] = human, plasma, 4 h
Description: Fraction unbound in human plasma after 4 hrs by LC/MS analysis

Toxoplasma gondii [13] = experiment: Antiprotozoan activity against Toxoplasma gondii RH infected in CF-1 mouse assessed as reduction of parasite burden in peritoneal fluid at 5 to 10 mg/kg, po bid administered for 5 days measured 24 hrs post last dose by hemocytometer-based fluorescence microscopy; format: functional, organism-based
Mus musculus [14] = experiment: Toxicity in CF-1 mouse infected with Toxoplasma gondii RH assessed as weight loss at 5 to 40 mg/kg, po bid administered for 5 days; format: organism-based; details: in vivo, 120 h
Toxoplasma gondii [15] = experiment: Antiprotozoan activity against Toxoplasma gondii RH infected in CF-1 mouse assessed as reduction of parasite burden in peritoneal fluid at 20 to 40 mg/kg, po bid administered for 5 days measured 24 hrs post last dose by hemocytometer-based fluorescence microscopy relative to control; format: functional
Mus musculus [16] = experiment: Toxicity in CF-1 mouse infected with Toxoplasma gondii RH assessed as altered grooming at 5 to 40 mg/kg, po bid administered for 5 days; format: organism-based; details: in vivo, 120 h
Mus musculus [17] = experiment: Toxicity in CF-1 mouse infected with Toxoplasma gondii RH assessed as lethargy at 20 mg/kg, po qd administered for 5 days; format: organism-based; details: in vivo, 120 h
Mus musculus [18] = experiment: Toxicity in CF-1 mouse infected with Toxoplasma gondii RH assessed as mortality at 50 mg/kg, po qd administered for 5 days measured on day 5; format: organism-based; details: in vivo, 120 h
Toxoplasma gondii [19] = experiment: Antiprotozoan activity against Toxoplasma gondii RH infected in CF-1 mouse assessed as reduction of parasite burden in brain at 20 to 50 mg/kg, po qd administered for 5 days measured 24 hrs post last dose by quantitative RT-PCR analysis relative to control; format: functional

Proto-oncogene tyrosine-protein kinase Src, sequence (P12931 2-536 limits assumed): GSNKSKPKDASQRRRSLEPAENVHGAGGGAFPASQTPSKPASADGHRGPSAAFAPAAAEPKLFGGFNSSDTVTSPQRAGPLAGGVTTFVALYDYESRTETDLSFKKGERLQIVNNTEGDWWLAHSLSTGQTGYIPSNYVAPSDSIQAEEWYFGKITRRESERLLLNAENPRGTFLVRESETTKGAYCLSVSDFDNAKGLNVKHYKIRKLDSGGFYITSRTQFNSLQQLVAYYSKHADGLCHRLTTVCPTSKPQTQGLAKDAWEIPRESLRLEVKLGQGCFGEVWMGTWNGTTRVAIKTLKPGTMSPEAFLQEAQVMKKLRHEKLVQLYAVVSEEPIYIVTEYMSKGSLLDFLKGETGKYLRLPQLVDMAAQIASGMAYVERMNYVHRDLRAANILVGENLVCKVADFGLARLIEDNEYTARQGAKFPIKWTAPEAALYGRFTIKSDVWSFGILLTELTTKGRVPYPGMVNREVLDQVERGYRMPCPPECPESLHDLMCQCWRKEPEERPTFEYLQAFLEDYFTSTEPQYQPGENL

## CCOc1ccc2cc(-c3nn(CC(C)(C)CO)c(N)c3C(N)=O)cnc2c1
[1]
  IC50: > 10000 nM
[2]
  Activity: > 40 µM

## CCOc1ccc2cc(-c3nn(C(C)C)c(N)c3C(N)=O)ccc2n1
[2]
  Activity: > 40 µM
[3]
  IC50: 6.5 nM

## CC(C)(C)n1nc(-c2cnc3cc(OCC4CC4)ccc3c2)c(C(N)=O)c1N
[1]
  IC50: > 10000 nM
[2]
  Activity: > 40 µM

## CCOc1ccc2cc(-c3nn(CC(C)(C)CO)c(N)c3C(N)=O)ccc2n1
[2]
  Activity: > 40 µM
[4]
  solubility: soluble

## CCOc1ccc2cc(-c3nn(C4CCCCC4)c(N)c3C(N)=O)ccc2n1
[2]
  Activity: > 40 µM
[3]
  IC50: 5.5 nM

## CC(C)(C)n1nc(-c2cnc3cc(OC4CC4)ccc3c2)c(C(N)=O)c1N
Mus musculus [5]
  Activity: Non-toxic
Toxoplasma gondii [6]
  growth inhibition (GI): inactive
Mus musculus [7]
  Activity: Non-toxic
Mus musculus [8]
  Activity: Non-toxic
Toxoplasma gondii [9]
  growth inhibition (GI): inactive
[10]
  BPR: 16%
[2]
  Activity: > 40 µM
[4]
  solubility: soluble

## CCOc1ccc2cc(-c3nn(C4CCC4)c(N)c3C(N)=O)cnc2c1
[2]
  Activity: > 40 µM

## CC(C)(C)n1nc(-c2cnc3cc(OC(F)(F)F)ccc3c2)c(C(N)=O)c1N
[3]
  IC50: 39 nM

## CC(C)Oc1ccc2cc(-c3nn(C(C)(C)C)c(N)c3C(N)=O)cnc2c1
[2]
  Activity: > 40 µM
[3]
  IC50: 16 nM

## CCOc1ccc2cc(-c3nn(C4CCCCCC4)c(N)c3C(N)=O)ccc2n1
[3]
  IC50: 17 nM

## CCOc1ccc2cc(-c3nn(C4CCCCCC4)c(N)c3C(N)=O)cnc2c1
[2]
  Activity: > 40 µM

## CCCOc1ccc2cc(-c3nn(C(C)(C)C)c(N)c3C(N)=O)cnc2c1
[2]
  Activity: > 40 µM

## CCOc1ccc2cc(-c3nn(CC4CC4)c(N)c3C(N)=O)cnc2c1
[2]
  Activity: > 40 µM
[3]
  IC50: 15 nM

## CCOc1ccc2cc(-c3nn(C(C)CO)c(N)c3C(N)=O)cnc2c1 (centres undefined)
[3]
  IC50: 26 nM

## CC(C)(C)n1nc(-c2cnc3cc(OC4CCC4)ccc3c2)c(C(N)=O)c1N
[2]
  Activity: > 40 µM
[4]
  solubility: Insoluble
[3]
  IC50: 7 nM

## CCOc1ccc2cc(-c3nn(C4CCCC4)c(N)c3C(N)=O)cnc2c1
[2]
  Activity: > 40 µM

## COc1ccc2cc(-c3nn(C(C)(C)C)c(N)c3C(N)=O)cnc2c1
[2]
  Activity: > 40 µM

## CCOc1ccc2cc(-c3nn(C(C)(C)C)c(N)c3C(N)=O)ccc2n1
[2]
  Activity: > 40 µM

## CCOc1ccc2cc(-c3nn(CC4CC4)c(N)c3C(N)=O)ccc2n1
[2]
  Activity: > 40 µM
[3]
  IC50: 7.9 nM

## CC(C)(C)n1nc(-c2ccc3nc(OC4CCC4)ccc3c2)c(C(N)=O)c1N
[2]
  Activity: > 40 µM
[3]
  IC50: 12 nM

## CCOc1ccc2cc(-c3nn(CC(C)(C)O)c(N)c3C(N)=O)cnc2c1
[3]
  IC50: 113 nM

## CCOc1ccc2cc(-c3nn(C(C)(C)C)c(N)c3C(N)=O)cnc2c1
Mus musculus [11]
  Activity: Non-toxic
[12]
  Fu: 57%
[10]
  BPR: 15.8%
[4]
  solubility: Insoluble
Toxoplasma gondii [13]
  Activity: Active
Mus musculus [14]
  Activity: Non-toxic
Toxoplasma gondii [15]
  fold change (FC): >10
Mus musculus [16]
  Activity: Non-toxic

## CC(C)(C)n1nc(-c2cnc3cc(F)ccc3c2)c(C(N)=O)c1N
[2]
  Activity: > 40 µM

## CC(C)(C)n1nc(-c2ccc3nc(OC4CC4)ccc3c2)c(C(N)=O)c1N
Mus musculus [5]
  Activity: Non-toxic
Toxoplasma gondii [6]
  growth inhibition (GI): inactive
Mus musculus [7]
  Activity: Non-toxic
Toxoplasma gondii [9]
  growth inhibition (GI): inactive
Mus musculus [17]
  Activity: Non-toxic
[12]
  Fu: 88%
[10]
  BPR: 43%
[2]
  Activity: > 40 µM
[3]
  IC50: 4.6 nM
Mus musculus [18]
  Activity: Toxic
Toxoplasma gondii [19]
  fold change (FC): >5
